Laboratory results taken from BindingDB's records for doi:10.1016/s0960-894x(01)00026-9 (University of Minnesota, 2001).

Assays:
[1] = Inhibitory concentration against Protein phosphatase 2A (25 nM) isolated from bovine myocardial tissue
[2] = molecular target: Serine/threonine-protein phosphatase PP1 catalytic subunit (Oryctolagus cuniculus); experiment: Inhibitory concentration against Protein phosphatase 1(10 nM) isolated from rabbit muscle

SMILES | IC50 [1] | IC50 [2]
C=C1[C@@H](O)[C@@H]2O[C@]3(CCCO3)CC[C@H]2O[C@@H]1[C@@H](O)C[C@H](C)[C@H]1O[C@@]2(CCCCO2)CC[C@H]1C [okadaic acid analogue] | > 1000 µM | –
C=C1[C@@H](O)[C@@H]2O[C@]3(CC[C@H](/C=C/[C@@H](C)[C@@H]4CC(C)=C[C@@]5(O[C@H](C[C@@](C)(O)C(=O)O)CC[C@H]5O)O4)O3)CC[C@H]2O[C@@H]1[C@@H](O)C[C@H](C)[C@H]1O[C@@]2(CCCCO2)CC[C@H]1C [okadaic acid analogue] | 0.007 µM | –
C=C1[C@@H](O)[C@@H]2O[C@]3(CC[C@H](/C=C/[C@@H](C)[C@@H]4CC(C)=C[C@@]5(O[C@H](C[C@@](C)(O)C(=O)O)CC[C@H]5O)O4)O3)CC[C@H]2O[C@@H]1CO [okadaic acid analogue] | 0.304 µM | 94 µM
